The assay addresses T1, DPP-IV, obtained from porcine kidneys (Sus scrofa, UniProt P22411).
T1 construct: DPP-IV, obtained from porcine kidneys; from tissue; host or cells: porcine kidney
The assay is described as follows: Measurement of DPPIV inhibiting effects (Gly-Pro-p-nitroanilide, absorbance at 405 nm). The assay is classed as biochemical. To be noted: porcine kidney DPP-IV 10 mU/mL, 20 min preincubation, Gly-Pro-p-nitroanilide 0.33 mM, pH 7.4. As for the experimental part:
Measurement of DPPIV Inhibiting Effects
DPP-IV, obtained from porcine kidneys, was dissolved in a reaction buffer solution (50 mM Tris-HCl, pH 7.4, 0.1% BSA) such that the concentration of DPP-IV was at 10 mU/mL. This solution (110 μl) was placed into test tubes, to which compounds to be tested were further added at a quantity of 15 μl and incubated at room temperature for 20 minutes. Twenty-five microliters of a solution in which Gly-Pro-p-nitroanilide was dissolved at 2 mM was added (final concentration, 0.33 mM) to start the enzymatic reaction. The reaction time was 20 minutes. The reaction was stopped by the addition of 25 μl of 1 N phosphoric acid.

pIC50: −log10 of the molar value.

T1 sequence (P22411 whole entry): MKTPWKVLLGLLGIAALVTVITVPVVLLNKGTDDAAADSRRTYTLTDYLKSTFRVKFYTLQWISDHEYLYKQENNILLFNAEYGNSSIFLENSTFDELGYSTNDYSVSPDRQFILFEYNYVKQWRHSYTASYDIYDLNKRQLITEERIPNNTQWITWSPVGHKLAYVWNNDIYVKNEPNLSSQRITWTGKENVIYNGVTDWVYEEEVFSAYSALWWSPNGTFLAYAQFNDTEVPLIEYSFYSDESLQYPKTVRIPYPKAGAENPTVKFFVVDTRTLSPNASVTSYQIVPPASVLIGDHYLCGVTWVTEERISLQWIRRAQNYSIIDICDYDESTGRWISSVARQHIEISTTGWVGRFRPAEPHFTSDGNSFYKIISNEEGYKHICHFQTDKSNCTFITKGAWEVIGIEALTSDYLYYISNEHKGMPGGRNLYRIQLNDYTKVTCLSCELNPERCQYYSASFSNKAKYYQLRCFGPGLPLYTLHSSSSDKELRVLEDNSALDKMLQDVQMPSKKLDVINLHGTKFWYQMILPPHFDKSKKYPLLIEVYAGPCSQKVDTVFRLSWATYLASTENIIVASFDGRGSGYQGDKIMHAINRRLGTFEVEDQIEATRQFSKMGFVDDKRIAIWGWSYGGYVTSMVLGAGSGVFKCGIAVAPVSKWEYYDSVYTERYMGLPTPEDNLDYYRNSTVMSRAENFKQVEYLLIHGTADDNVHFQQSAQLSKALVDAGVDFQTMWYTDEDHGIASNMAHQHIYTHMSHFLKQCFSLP

For the compound `CN(C)C(=O)n1cnc(SCc2ccccc2)n1` [Example 1, 3-Benzylthio-1-dimethylcarbamoyl-1H-1,2,4-triazole], the pIC50 was 5.33.

As for `Cc1cc(C)c(S(=O)(=O)c2ncn(C(=O)N(C)C(C)C)n2)c(C)c1` [Example 38, 3-(2,4,6-Trimethylphenyl)sulfonyl-1-(N-methyl-N-isopropylcarbamoyl)-1H-1,2,4-triazole], the pIC50 was 8.79.

`CN(C)C(=O)n1cnc(S(=O)(=O)C(c2ccc(F)cc2)c2ccc(F)cc2)n1` [Example 9, 3-[Bis(4-fluorophenyl)methyl]sulfonyl-1-dimethylcarbamoyl-1H-1,2,4-triazole] showed a pIC50 of 6.66. Compared with the last compound, the pIC50 is 2.13 log units lower.

The compound `CN(C)C(=O)n1cnc(S(=O)(=O)N2C3CCCC2CC3)n1` [Example 55, 3-(8-Azabicyclo[3.2.1]octan-8-yl)sulfonyl-1-dimethylcarbamoyl-1H-1,2,4-triazole] had a pIC50 of 7.02.

`CCN(CC)C(=O)n1cnc(S(=O)(=O)Cc2ccccc2)n1` [Example 3, 3-Benzylsulfonyl-1-diethylcarbamoyl-1H-1,2,4-triazole] showed a pIC50 of 6.11. Against the preceding compound, the pIC50 is 0.91 log units lower.

The compound `CN(C)C(=O)n1cnc(S(=O)(=O)CC2CCCCC2)n1` [Example 17, 3-Cyclohexylmethylsulfonyl-1-dimethylcarbamoyl-1H-1,2,4-triazole] gave a pIC50 of 6.38.

On to `CN(C)C(=O)n1cnc(S(=O)(=O)c2cc(F)c(C#N)cc2F)n1` [Example 45, 3-(4-Cyano-2,5-difluorophenyl)sulfonyl-1-dimethylcarbamoyl-1H-1,2,4-triazole], for which the pIC50 is 7.49.

Take `CN(C)C(=O)n1cnc(Sc2cccc(Br)n2)n1` [Example 52, 3-(6-Bromo-2-pyridyl)thio-1-dimethylcarbamoyl-1H-1,2,4-triazole]: the pIC50 is 5.32.

Consider `Cc1cc(C)n(S(=O)(=O)c2ncn(C(=O)N(C)C)n2)n1` [Example 56, 3-(3,5-Dimethylpyrazol-1-yl)sulfonyl-1-dimethylcarbamoyl-1H-1,2,4-triazole], for which the pIC50 is 7.00.

For the compound `CN(C)C(=O)n1cnc(S(=O)(=O)N(C)c2ccc(Cl)cc2)n1` [Example 58, 3-[N-(4-chlorophenyl)-N-methylamino]sulfonyl-1-dimethylcarbamoyl-1H-1,2,4-triazole], the negative logarithm of the IC50 (pIC50) is 7.80.

Consider `Cc1nn(-c2ccccc2)c(C)c1Sc1ncn(C(=O)N(C)C)n1` [Example 48, 3-(3,5-Dimethyl-1-phenylpyrazol-4-yl)thio-1-dimethylcarbamoyl-1H-1,2,4-triazole], for which the negative-log IC50 (pIC50) was 5.81.

`CN(C)C(=O)n1cnc(S[C@@H]2C[C@@H]3CC[C@H]2C3)n1` (relative stereo) [Example 12, 3-(Endo-norbornan-2-yl)thio-1-dimethylcarbamoyl-1H-1,2,4-triazole] showed a pIC50 of 5.76.

As to `CN(C)C(=O)n1cnc(Sc2cc(F)c(C#N)cc2F)n1` [Example 44, 3-(4-Cyano-2,5-difluorophenyl)thio-1-dimethylcarbamoyl-1H-1,2,4-triazole], the negative-log IC50 (pIC50) was 6.50.

Turning to `Cc1nc2ccccn2c1Sc1ncn(C(=O)N(C)C)n1` [Example 50, 3-(2-Methylimidazo[1,2-a]pyridin-3-yl)thio-1-dimethylcarbamoyl-1H-1,2,4-triazole], the pIC50 is 5.27. This pIC50 is 1.23 log units lower than that of the compound before.

Compound “3-(Endo-norbornan-2-yl)sulfonyl-1-(N-methyl-N-phenylcarbamoyl)-1H-1,2,4-triazole [Example 22]” gave a pIC50 of 5.64.

Regarding `CN(C)C(=O)n1cnc(SC(c2ccc(F)cc2)c2ccc(F)cc2)n1` [Example 8, 3-[Bis(4-fluorophenyl)methyl]thio-1-dimethylcarbamoyl-1H-1,2,4-triazole], the negative logarithm of the IC50 (pIC50) was 5.47. This pIC50 and that of the compound before are within 0.2 log units of each other.

Take `CN(C)C(=O)n1cnc(SCC23CC4CC(CC(C4)C2)C3)n1` [Example 18, 3-(1-Adamantylmethyl)thio-1-dimethylcarbamoyl-1H-1,2,4-triazole]: the pIC50 is 5.34.

In turn, `CN(C)C(=O)n1cnc(S(=O)(=O)C(c2ccccc2)c2ccccc2)n1` [Example 7, 3-(Diphenylmethyl)sulfonyl-1-dimethylcarbamoyl-1H-1,2,4-triazole] showed a pIC50 of 6.72.

Consider `CN(C)C(=O)n1cnc(S(=O)(=O)CC23CC4CC(CC(C4)C2)C3)n1` [Example 19, 3-(1-Adamantylmethyl)sulfonyl-1-dimethylcarbamoyl-1H-1,2,4-triazole], for which the pIC50 was 6.63.

Consider `CC(C)CCS(=O)(=O)c1ncn(C(=O)N(C)C)n1` [Example 20, 3-(3-Methylbutyl)sulfonyl-1-dimethylcarbamoyl-1H-1,2,4-triazole], for which the pIC50 is 5.86. Against the preceding compound, the pIC50 is 0.77 log units lower.

With `Cc1ccc(S(=O)(=O)c2ncn(C(=O)N(C)C)n2)cc1` [Example 60, 3-(4-Toluenesulfonyl)-1-dimethylcarbamoyl-1H-1,2,4-triazole], the negative logarithm of the IC50 (pIC50) is 6.47. This pIC50 is 0.61 log units higher than that of the compound before.

Compound `Cc1cc(C)c(S(=O)(=O)c2ncn(C(=O)N(C)C)n2)c(C)c1` [Example 33, 3-(2,4,6-Trimethylphenyl)sulfonyl-1-dimethylcarbamoyl-1H-1,2,4-triazole] gave a pIC50 of 8.02. This pIC50 lies 1.55 log units higher than the previous one.

In turn, `CN(C)C(=O)n1cnc(SCC2CCCCC2)n1` [Example 16, 3-Cyclohexylmethylthio-1-dimethylcarbamoyl-1H-1,2,4-triazole] showed a negative logarithm of the IC50 (pIC50) of 5.26.

Take `Cc1noc(C)c1Sc1ncn(C(=O)N(C)C)n1` [Example 46, 3-(3,5-Dimethylisoxazol-4-yl)thio-1-dimethylcarbamoyl-1H-1,2,4-triazole]: the pIC50 is 5.75.

`CN(C)C(=O)n1cnc(SC2CCOc3ccccc32)n1` (centres unmarked) [Example 10, 3-(Chroman-4-yl)thio-1-dimethylcarbamoyl-1H-1,2,4-triazole]: the pIC50 is 6.16.

As to `CN(C)C(=O)n1cnc(S(=O)(=O)C2CCCCC2)n1` [Example 15, 3-Cyclohexylsulfonyl-1-dimethylcarbamoyl-1H-1,2,4-triazole], the negative-log IC50 (pIC50) was 6.51.

The compound `Cc1cccc(OCC(F)(F)F)c1S(=O)(=O)c1ncn(C(=O)N(C)C)n1` [Example 41, 3-[2-(2,2,2-Trifluoroethyl)oxy-6-methylphenyl]sulfonyl-1-dimethyl-carbamoyl-1H-1,2,4-triazole] showed a pIC50 of 8.37.

In the case of `Cc1cc(C)c(Sc2ncn(C(=O)N(C)C)n2)c(C)c1` [Example 32, 3-(2,4,6-Trimethylphenyl)thio-1-dimethylcarbamoyl-1H-1,2,4-triazole], the pIC50 is 5.43.

Compound `CN(C(=O)n1cnc(S(=O)(=O)[C@@H]2C[C@@H]3CC[C@H]2C3)n1)C(C)(C)C` (relative stereo) [Example 31, 3-(Endo-norbornan-2-yl)sulfonyl-1-(N-methyl-N-tert-butylcarbamoyl)-1H-1,2,4-triazole] had a pIC50 of 6.04. This pIC50 is 0.61 log units higher than that of the compound before.

`CN(C)C(=O)n1cnc(S(=O)(=O)N2CCCCC2)n1` [Example 54, 3-(Piperidin-1-yl)sulfonyl-1-dimethylcarbamoyl-1H-1,2,4-triazole] gave a pIC50 of 6.79.

As for `CN(C)C(=O)n1cnc(S(=O)(=O)N2CCc3ccccc32)n1` [Example 57, 3-(2,3-Dihydro-1H-indol-1-yl)sulfonyl-1-dimethylcarbamoyl-1H-1,2,4-triazole], the pIC50 is 6.64.

`Cc1nn(-c2ccccc2)c(C)c1S(=O)(=O)c1ncn(C(=O)N(C)C)n1` [Example 49, 3-(3,5-Dimethyl-1-phenylpyrazol-4-yl)sulfonyl-1-dimethylcarbamoyl-1H-1,2,4-triazole] gave a pIC50 of 7.59.

Take `CN(C)C(=O)n1cnc(SC2CCCCC2)n1` [Example 14, 3-Cyclohexylthio-1-dimethylcarbamoyl-1H-1,2,4-triazole]: the pIC50 is 5.65.

Compound `Cc1noc(C)c1S(=O)(=O)c1ncn(C(=O)N(C)C)n1` [Example 47, 3-(3,5-Dimethylisoxazol-4-yl)sulfonyl-1-dimethylcarbamoyl-1H-1,2,4-triazole] showed a pIC50 of 6.99.

Compound `O=C(N1CCSC1)n1cnc(S(=O)(=O)[C@@H]2C[C@@H]3CC[C@H]2C3)n1` (relative stereo) [Example 25, 3-(Endo-norbornan-2-yl)sulfonyl-1-(1,3-thiazolidin-3-yl)carbonyl-1H-1,2,4-triazole] showed a pIC50 of 7.24.

`COCCOc1cccc(C)c1Sc1ncn(C(=O)N(C)C)n1` [Example 42, 3-[2-(2-Methoxyethyl)oxy-6-methylphenyl]thio-1-dimethylcarbamoyl-1H-1,2,4-triazole] gave a pIC50 of 6.26.

The compound `CCN(C)C(=O)n1cnc(S(=O)(=O)[C@@H]2C[C@@H]3CC[C@H]2C3)n1` (relative stereo) [Example 24, 3-(Endo-norbornan-2-yl)sulfonyl-1-(N-methyl-N-ethylcarbamoyl)-1H-1,2,4-triazole] gave a pIC50 of 7.67.

`C=CCN(C)C(=O)n1cnc(S(=O)(=O)[C@@H]2C[C@@H]3CC[C@H]2C3)n1` (relative stereo) [Example 27, 3-(Endo-norbornan-2-yl)sulfonyl-1-(N-methyl-N-allylcarbamoyl)-1H-1,2,4-triazole] showed a pIC50 of 7.11.

With `Cc1nc2ccccn2c1S(=O)(=O)c1ncn(C(=O)N(C)C)n1` [Example 51, 3-(2-Methylimidazo[1,2-a]pyridin-3-yl)sulfonyl-1-dimethylcarbamoyl-1H-1,2,4-triazole], the pIC50 is 6.97.

`CCN(CC)C(=O)n1cnc(S(=O)(=O)c2c(C)cc(C)cc2C)n1` [Example 34, 3-(2,4,6-Trimethylphenyl)sulfonyl-1-diethylcarbamoyl-1H-1,2,4-triazole] had a pIC50 of 5.18.

`CCN(C)C(=O)n1cnc(S(=O)(=O)c2c(C)cc(C)cc2C)n1` [Example 36, 3-(2,4,6-Trimethylphenyl)sulfonyl-1-(N-methyl-N-ethylcarbamoyl)-1H-1,2,4-triazole] had a pIC50 of 9.46.

By pIC50 is commonly meant the IC50 on a negative log10 scale, so that one unit is a factor of ten. A high value points to a small IC50.

The values above are taken from US7238720B2, “Pharmaceutical use of N-carbamoylazole derivatives” (Eisai R & D Management Co. Ltd., priority 2001, dated 2007).
